Values of other authors, collected in patent publication US10585101B2, “Prostatic liquid biopsy for the detection of prostate cancer and benign prostatic hyperplasia” (WAVESENSE, INC., priority 2016, dated 2020).

System: prostate cancer
Settings: long term use

CC(C)(C)NC(=O)[C@H]1CC[C@H]2[C@@H]3CC[C@H]4NC(=O)C=C[C@]4(C)[C@H]3CC[C@]12C [finasteride, Finasteride]
risk of low-grade prostate cancer: decreased the risk of low-grade prostate cancer
